In US20200054633A1 (priority 2017, published 2020):
Read-outs that look alike come from different tables or passages of the source.

Assays:
[1] = test system: acute uncomplicated seasonal influenza A; test: Clinical study: nasal viral load by qRT-PCR (AUC, LS means, time to viral negativity); assay type: in vivo, human; conditions: for LS Means viral load (qRT-PCR) Day 3 / LS Means viral load (qRT-PCR) Day 4 / LS Means viral load (qRT-PCR) Day 6 / LS Means viral load (qRT-PCR) Day 8: log10 nasal viral load; for LS Means viral load (qRT-PCR) Day 3 / LS Means viral load (qRT-PCR) Day 4 / LS Means viral load (qRT-PCR) Day 6 / LS Means viral load (qRT-PCR) Day 8 / Change in AUC Viral Load (by qRT-PCR) Days 1 to 8 versus placebo / Time to influenza A negativity (qRT-PCR) Acceleration Factor: Full Analysis Set; for Time to influenza A negativity (qRT-PCR) Acceleration Factor: versus placebo, accelerated failure time model
Influenza A = assay type: in vivo, human; conditions: for Acceleration Factor, time to Influenza A negativity (TCID50), treatment versus placebo: accelerated failure time model, Full Analysis Set
[2] = Clinical study: treatment-emergent laboratory toxicities, ECG, vital signs; assay type: in vivo, human; conditions: for Worst treatment-emergent toxicity: Glucose hyperglycemia Grade 3 / Worst treatment-emergent toxicity: ALT increase by factor Grade 3 / Worst treatment-emergent toxicity: ALT increase by factor Grade 4 / Worst treatment-emergent toxicity: AST increase by factor Grade 4 / Worst treatment-emergent toxicity: CPK Grade 3 / Worst treatment-emergent toxicity: CPK Grade 4 / Worst treatment-emergent toxicity: Cholesterol Grade 3 / Worst treatment-emergent toxicity: Hemoglobin - change from baseline Grade 3 / Worst treatment-emergent toxicity: Hyperkalemia Grade 3 / Worst treatment-emergent toxicity: Hyperkalemia Grade 4 / Worst treatment-emergent toxicity: Hypernatremia Grade 3 / Worst treatment-emergent toxicity: Hypernatremia Grade 4 / Worst treatment-emergent toxicity: Hypocalcemia Grade 4 / Worst treatment-emergent toxicity: Hypoglycemia Grade 3 / Worst treatment-emergent toxicity: Hypokalemia Grade 3 / Worst treatment-emergent toxicity: Hypokalemia Grade 4 / Worst treatment-emergent toxicity: Hypomagnesemia Grade 3 / Worst treatment-emergent toxicity: Hyponatremia Grade 3 / Worst treatment-emergent toxicity: Hypophosphatemia Grade 3 / Worst treatment-emergent toxicity: Neutrophils decrease Grade 3 / Worst treatment-emergent toxicity: Neutrophils decrease Grade 4 / Worst treatment-emergent toxicity: Urine RBC increased Grade 3 / Worst treatment-emergent toxicity: Urine WBC increased Grade 3 / Worst treatment-emergent toxicity: Urine glucose increased Grade 3 / Worst treatment-emergent toxicity: Urine protein increased Grade 3: OST placebo; for Worst treatment-emergent toxicity: ALT increase by factor Grade 3 / Worst treatment-emergent toxicity: ALT increase by factor Grade 4 / Worst treatment-emergent toxicity: AST increase by factor Grade 4 / Worst treatment-emergent toxicity: CPK Grade 3 / Worst treatment-emergent toxicity: CPK Grade 4 / Worst treatment-emergent toxicity: Cholesterol Grade 3 / Worst treatment-emergent toxicity: Hemoglobin - change from baseline Grade 3 / Worst treatment-emergent toxicity: Hyperkalemia Grade 3 / Worst treatment-emergent toxicity: Hyperkalemia Grade 4 / Worst treatment-emergent toxicity: Hypernatremia Grade 3 / Worst treatment-emergent toxicity: Hypernatremia Grade 4 / Worst treatment-emergent toxicity: Hypocalcemia Grade 4 / Worst treatment-emergent toxicity: Hypoglycemia Grade 3 / Worst treatment-emergent toxicity: Hypokalemia Grade 3 / Worst treatment-emergent toxicity: Hypokalemia Grade 4 / Worst treatment-emergent toxicity: Hypomagnesemia Grade 3 / Worst treatment-emergent toxicity: Hyponatremia Grade 3 / Worst treatment-emergent toxicity: Hypophosphatemia Grade 3 / Worst treatment-emergent toxicity: Neutrophils decrease Grade 3 / Worst treatment-emergent toxicity: Neutrophils decrease Grade 4 / Worst treatment-emergent toxicity: Urine RBC increased Grade 3 / Worst treatment-emergent toxicity: Urine WBC increased Grade 3 / Worst treatment-emergent toxicity: Urine glucose increased Grade 3 / Worst treatment-emergent toxicity: Urine protein increased Grade 3: Safety Set 74
[3] = Clinical study: study drug discontinuation and reasons; assay type: in vivo, human
Source text: Given the sizable difference between the FAS and the Safety Set, summary tables are provided for both analysis sets. Table 4 and Table 5 present a summary of subjects who completed or discontinued study drug and/or the study for the FAS and the Safety Set, respectively.

[4] = test system: acute uncomplicated seasonal influenza A; test: Clinical study: time to resolution of the 7 primary influenza symptoms (Flu-iiQ); conditions: for Median (95% CI): untitled table, presumably time to symptom resolution
Source text: This study followed a randomized, double-blind, placebo-controlled, parallel-group, multicenter design.
Key secondary efficacy variable: Time to resolution of influenza symptoms after initiation of study drug. Resolution of influenza symptoms was defined as the first Flu iiQ™ recording of a successive series of 3 recordings (over 4 scheduled successive analysis time points, 1 missing time point is allowed) in which all symptom scores for each of the 3 assessments were at most mild for all 7 primary influenza symptoms (cough, sore throat, headache, nasal stuffiness, feverishness or chills, muscle or joint pain, and fatigue).

[5] = Cmpd (1) 300 mg + OST placebo, Full Analysis Set
[6] = Cmpd (1) 300 mg + OST placebo, Safety Set
[7] = Cmpd (1) 600 mg + OST placebo, Full Analysis Set
[8] = Cmpd (1) 600 mg + OST placebo, Safety Set

O=C(O)[C@H]1C2CCC(CC2)[C@@H]1Nc1nc(-c2c[nH]c3ncc(F)cc23)ncc1F [Compound (1), Pimodivir]
LS Means viral load (qRT-PCR) Day 3 ([1]; Cmpd (1) 300 mg + OST placebo): 5.2 | LS Means viral load (qRT-PCR) Day 4 ([1]; Cmpd (1) 300 mg + OST placebo): 3.9 | LS Means viral load (qRT-PCR) Day 6 ([1]; Cmpd (1) 300 mg + OST placebo): 2.5 | LS Means viral load (qRT-PCR) Day 8 ([1]; Cmpd (1) 300 mg + OST placebo): 1.4 | LS Means viral load (qRT-PCR) Day 3 ([1]; Cmpd (1) 600 mg + OST placebo): 4.9 | LS Means viral load (qRT-PCR) Day 4 ([1]; Cmpd (1) 600 mg + OST placebo): 3.8 | LS Means viral load (qRT-PCR) Day 6 ([1]; Cmpd (1) 600 mg + OST placebo): 2.5 | LS Means viral load (qRT-PCR) Day 8 ([1]; Cmpd (1) 600 mg + OST placebo): 1.0 | reduction of time to viral negativity (qRT-PCR) versus placebo ([1]; Compound (1) 300 mg bid): 13% | Change in AUC Viral Load (by qRT-PCR) Days 1 to 8 versus placebo ([1]; Compound (1) 300 mg bid): −3.6 day*log10 copies/mL | reduction of time to viral negativity (qRT-PCR) versus placebo ([1]; Compound (1) 600 mg bid): 18% | Change in AUC Viral Load (by qRT-PCR) Days 1 to 8 versus placebo ([1]; Compound (1) 600 mg bid): −4.5 day*log10 copies/mL | effect on AUC of viral load (by qRT-PCR) over 7 days from start of dosing ([1]; Compound (1) treatment versus placebo): statistically significant and dose-dependent decrease in AUC of viral load | Time to influenza A negativity (qRT-PCR) Acceleration Factor ([1]; Cmpd (1) 300 mg + OST placebo): 0.87 | Time to influenza A negativity (qRT-PCR) Acceleration Factor ([1]; Cmpd (1) 600 mg + OST placebo): 0.82 | Acceleration Factor, time to Influenza A negativity (TCID50), treatment versus placebo (Influenza A; Cmpd (1) 300 mg + OST placebo): 0.71 | Acceleration Factor, time to Influenza A negativity (TCID50), treatment versus placebo (Influenza A; Cmpd (1) 600 mg + OST placebo): 0.72 | reduction in time to negative viral load (viral culture) versus placebo (Influenza A; Compound (1) 300 mg bid): 29% | reduction in time to negative viral load (viral culture) versus placebo (Influenza A; Compound (1) 600 mg bid): 28% | Worst treatment-emergent toxicity: Glucose hyperglycemia Grade 3 ([2]; 300 mg, N 73): 1 (1.4%) | Worst treatment-emergent toxicity: ALT increase by factor Grade 3 ([2]; 300 mg): 0 | Worst treatment-emergent toxicity: ALT increase by factor Grade 4 ([2]; 300 mg): 0 | Worst treatment-emergent toxicity: AST increase by factor Grade 4 ([2]; 300 mg): 0 | Worst treatment-emergent toxicity: CPK Grade 3 ([2]; 300 mg): 1 (1.4%) | Worst treatment-emergent toxicity: CPK Grade 4 ([2]; 300 mg): 0 | Worst treatment-emergent toxicity: Cholesterol Grade 3 ([2]; 300 mg): 0 | Worst treatment-emergent toxicity: Hemoglobin - change from baseline Grade 3 ([2]; 300 mg): 5 (7.1%) | Worst treatment-emergent toxicity: Hyperkalemia Grade 3 ([2]; 300 mg): 1 (1.4%) | Worst treatment-emergent toxicity: Hyperkalemia Grade 4 ([2]; 300 mg): 0 | Worst treatment-emergent toxicity: Hypernatremia Grade 3 ([2]; 300 mg): 0 | Worst treatment-emergent toxicity: Hypernatremia Grade 4 ([2]; 300 mg): 0 | Worst treatment-emergent toxicity: Hypocalcemia Grade 4 ([2]; 300 mg): 1 (1.4%) | Worst treatment-emergent toxicity: Hypoglycemia Grade 3 ([2]; 300 mg): 0 | Worst treatment-emergent toxicity: Hypokalemia Grade 3 ([2]; 300 mg): 0 | Worst treatment-emergent toxicity: Hypokalemia Grade 4 ([2]; 300 mg): 0 | Worst treatment-emergent toxicity: Hypomagnesemia Grade 3 ([2]; 300 mg): 1 (1.4%) | Worst treatment-emergent toxicity: Hyponatremia Grade 3 ([2]; 300 mg): 0 | Worst treatment-emergent toxicity: Hypophosphatemia Grade 3 ([2]; 300 mg): 2 (2.7%) | Worst treatment-emergent toxicity: Neutrophils decrease Grade 3 ([2]; 300 mg): 1 (1.4%) | Worst treatment-emergent toxicity: Neutrophils decrease Grade 4 ([2]; 300 mg): 0 | Worst treatment-emergent toxicity: Urine RBC increased Grade 3 ([2]; 300 mg): 3 (9.4%) | Worst treatment-emergent toxicity: Urine WBC increased Grade 3 ([2]; 300 mg): 0 | Worst treatment-emergent toxicity: Urine glucose increased Grade 3 ([2]; 300 mg): 1 (1.4%) | Worst treatment-emergent toxicity: Urine protein increased Grade 3 ([2]; 300 mg): 0 | Worst treatment-emergent toxicity: Glucose hyperglycemia Grade 3 ([2]; 600 mg, N 70): 0 | Worst treatment-emergent toxicity: ALT increase by factor Grade 3 ([2]; 600 mg): 1 | Worst treatment-emergent toxicity: ALT increase by factor Grade 4 ([2]; 600 mg): 1 | Worst treatment-emergent toxicity: AST increase by factor Grade 4 ([2]; 600 mg): 1 | Worst treatment-emergent toxicity: CPK Grade 3 ([2]; 600 mg): 2 | Worst treatment-emergent toxicity: CPK Grade 4 ([2]; 600 mg): 1 | Worst treatment-emergent toxicity: Cholesterol Grade 3 ([2]; 600 mg): 4 | Worst treatment-emergent toxicity: Hemoglobin - change from baseline Grade 3 ([2]; 600 mg): 3 | Worst treatment-emergent toxicity: Hyperkalemia Grade 3 ([2]; 600 mg): 1 | Worst treatment-emergent toxicity: Hyperkalemia Grade 4 ([2]; 600 mg): 2 | Worst treatment-emergent toxicity: Hypernatremia Grade 3 ([2]; 600 mg): 0 | Worst treatment-emergent toxicity: Hypernatremia Grade 4 ([2]; 600 mg): 0 | Worst treatment-emergent toxicity: Hypocalcemia Grade 4 ([2]; 600 mg): 0 | Worst treatment-emergent toxicity: Hypoglycemia Grade 3 ([2]; 600 mg): 2 | Worst treatment-emergent toxicity: Hypokalemia Grade 3 ([2]; 600 mg): 1 | Worst treatment-emergent toxicity: Hypokalemia Grade 4 ([2]; 600 mg): 1 | Worst treatment-emergent toxicity: Hypomagnesemia Grade 3 ([2]; 600 mg): 0 | Worst treatment-emergent toxicity: Hyponatremia Grade 3 ([2]; 600 mg): 0 | Worst treatment-emergent toxicity: Hypophosphatemia Grade 3 ([2]; 600 mg): 0 | Worst treatment-emergent toxicity: Neutrophils decrease Grade 3 ([2]; 600 mg): 4 | Worst treatment-emergent toxicity: Neutrophils decrease Grade 4 ([2]; 600 mg): 0 | Worst treatment-emergent toxicity: Urine RBC increased Grade 3 ([2]; 600 mg): 5 | Worst treatment-emergent toxicity: Urine WBC increased Grade 3 ([2]; 600 mg): 2 | Worst treatment-emergent toxicity: Urine glucose increased Grade 3 ([2]; 600 mg): 0 | Worst treatment-emergent toxicity: Urine protein increased Grade 3 ([2]; 600 mg): 2 | laboratory values, electrocardiograms, and vital signs ([2]; clinical study): No safety concerns were noted | Drug termination: Discontinued [3, 5]: 20.7% | Drug termination: Discontinued, Adverse event [3, 5]: (10.3%) | Drug termination: Discontinued ([3]; Cmpd (1) 300 mg + OST placebo, Full Analysis Set, listed as Cmpd (1)): (20.7%) | Drug termination: Discontinued [3, 6]: 14 (18.9%) | Drug termination: Discontinued, Adverse event [3, 6]: 7 (9.5%) | Drug termination: Discontinued [3, 7]: 14.0% | Drug termination: Discontinued, Adverse event [3, 7]: (5.3%) | Drug termination: Discontinued ([3]; Cmpd (1) 600 mg + OST placebo, Full Analysis Set, listed as Cmpd (1)): (14.0%) | Drug termination: Discontinued [3, 8]: 12 (16.2%) | Drug termination: Discontinued, Adverse event [3, 8]: 3 (4.1%) | Median (95% CI) ([4]; Cmpd (1) 300 mg): 99.0 (71.5; | Median (95% CI) ([4]; Cmpd (1) 600 mg): 85.7 (55.3; | increase in time to resolution of the 7 primary influenza symptoms versus placebo ([4]; Compound (1) 300 mg bid, accelerated failure time model): 7%
